In assay [1] the target is Heat shock protein HSP 90-beta (Homo sapiens) (UniProt P08238). The assay can be described thus: Inhibition of HSP90 in human H1975 cells assessed as upregulation of Hsp70 at 100 uM after 24 hrs by Western blotting analysis. It is filed as cell-based.
A further assay deals with NCI-H1975. The assay can be described thus: Antiproliferative activity against gefitinib-resistant human NCI-H1975 cells after 72 hrs by MTS assay. The assay is classed as functional, cell-based.
Assay [2] deals with Heat shock protein HSP 90-beta (Homo sapiens) (UniProt P08238). In words: Inhibition of HSP90 in human H1975 cells assessed as reduction of Her2 level at 100 uM after 24 hrs by Western blotting analysis. The assay is classed as cell-based. In general terms: In western blotting, separated proteins are transferred to a membrane and probed.
Assay [3] has the same target. In words: Inhibition of HSP90 in human H1975 cells assessed as reduction of Met level at 100 uM after 24 hrs by Western blotting analysis. It is filed as cell-based.
Assay [4] has the same target. In words: Inhibition of HSP90 in human H1975 cells assessed as reduction of Akt level at 100 uM after 24 hrs by Western blotting analysis. It is filed as cell-based.
The target in assay [5] is Heat shock protein HSP 90-alpha (Homo sapiens, UniProt P07900). In words: Inhibition of recombinant human Hsp90alpha ATP-binding pocket of N-terminal domain after 4 hrs by fluorescence polarization assay. A general note: Polarisation of emitted light reports the rotation of a fluorescent probe.
Assay [6] concerns the target Heat shock protein HSP 90-beta (Homo sapiens) (UniProt P08238). The assay can be described thus: Inhibition of HSP90 in human H1975 cells assessed as reduction of Her2 level after 24 hrs by densitometric analysis. The assay is classed as cell-based.
The target is the same in assay [7]. The assay can be described thus: Inhibition of HSP90 in human H1975 cells assessed as upregulation of Hsp70 after 24 hrs by densitometric analysis. The assay is classed as cell-based.
The target is the same in assay [8]. The assay can be described thus: Inhibition of HSP90 in human H1975 cells assessed as reduction of Met level after 24 hrs by densitometric analysis. The assay is classed as cell-based.
Assay [9] has the same target. The assay can be described thus: Inhibition of HSP90 in human H1975 cells assessed as reduction of Her2 level at 50 to 100 uM after 24 hrs by densitometric analysis. The assay is classed as cell-based.
Assay [10] has the same target. The assay can be described thus: Inhibition of HSP90 in human H1975 cells assessed as reduction of Akt level after 24 hrs by densitometric analysis. The assay is classed as cell-based.

The source of these data is ChEMBL document CHEMBL3085689, “Targeting the hydrophobic region of Hsp90's ATP binding pocket with novel 1,3,5-triazines” (Bioorg Med Chem Lett, 2013).

Active and inactive are the calls of the source. No cut-off for these calls is given here.

Heat shock protein HSP 90-beta (Homo sapiens), sequence (P08238 whole entry): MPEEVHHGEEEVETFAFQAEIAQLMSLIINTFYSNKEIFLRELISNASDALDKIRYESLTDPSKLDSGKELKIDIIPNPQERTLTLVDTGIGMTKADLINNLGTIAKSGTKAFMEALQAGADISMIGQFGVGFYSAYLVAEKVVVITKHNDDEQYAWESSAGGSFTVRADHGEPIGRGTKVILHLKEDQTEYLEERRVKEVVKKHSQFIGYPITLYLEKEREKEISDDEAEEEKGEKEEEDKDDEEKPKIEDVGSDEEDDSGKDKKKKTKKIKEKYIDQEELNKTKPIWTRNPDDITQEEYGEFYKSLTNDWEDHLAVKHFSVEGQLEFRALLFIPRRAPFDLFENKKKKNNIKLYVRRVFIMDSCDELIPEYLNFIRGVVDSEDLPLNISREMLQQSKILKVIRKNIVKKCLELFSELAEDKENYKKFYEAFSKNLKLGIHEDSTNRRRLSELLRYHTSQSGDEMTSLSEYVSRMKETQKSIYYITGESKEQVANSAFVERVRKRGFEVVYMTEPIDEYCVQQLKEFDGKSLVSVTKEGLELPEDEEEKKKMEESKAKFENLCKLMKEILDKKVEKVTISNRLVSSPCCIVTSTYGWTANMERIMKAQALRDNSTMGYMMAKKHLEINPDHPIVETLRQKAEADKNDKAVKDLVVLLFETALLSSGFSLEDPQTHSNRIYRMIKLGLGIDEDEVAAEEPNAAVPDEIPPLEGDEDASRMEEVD

Turning to `COc1ccc(COc2nc(N)nc(Cl)n2)cc1`, the outcome in assay [1], in assay [2] and in assay [3] was inactive. Moreover, the Activity entry with NCI-H1975 is “Dose-dependent effect”.
On to `Nc1nc(Cl)nc(Nc2ccccc2)n1`, for which the Activity result in the assay with NCI-H1975 was “Dose-dependent effect”.
For the molecule `COc1cc(COc2nc(N)nc(Cl)n2)cc(OC)c1OC`, the Activity result with NCI-H1975 was “Dose-dependent effect”.
For `COc1ccc(Oc2nc(N)nc(Cl)n2)cc1`, the result in assay [4], in assay [1], in [2] and in assay [3] was Active. Also, the Activity entry in the assay with NCI-H1975 was “Dose-dependent effect”.
Broadly, the IC50 is the concentration at which inhibition is half-maximal. One may read the Ki as a dissociation constant, usually derived from enzyme kinetics or from competition with a known ligand. For `Cc1cccc(C)c1Oc1nc(N)nc(Cl)n1`, the result in assay [4], in assay [1], in [2], in assay [9] and in [3] was Active. Further, the IC50 in [5] was 5 µM. For the same molecule, the Ki in assay [5] was 2.8 µM. Also, the Activity entry (with NCI-H1975; in [6]; in assay [7]; in assay [8]; in assay [10]) was “Dose-dependent effect” in each case.
As for `Nc1nc(Cl)nc(Nc2ccccc2Cl)n1`, in the assay on NCI-H1975, the Activity entry was “Dose-dependent effect”.
As to `Nc1nc(Cl)nc(Nc2ccc(O)cc2)n1`, the Activity result in the assay on NCI-H1975 was “Dose-dependent effect”.
